Like-named read-outs stand apart in the source and are kept apart here.
What was measured:
NG108-15 cells = assay: Activity to accelerate synaptic formation: differentiation of NG108-15 cells, anti-Rab3a immunostaining; assay type: cell-based, rat; settings: Selenoprotein P 4.36 μg/mL
Method: In order to study the effect of Selenoprotein P on synaptic formation, differentiation to neurons was examined using NG108-15 cells (hybridoma of rat neuroblastoma and rat glioma: ATCC NO. HB-12317) which has widely been used for study of synaptic formation and a receptor. NK108-15 cells were seeded to DME supplemented with 10% fetal calf serum and HAT (hypoxanthine, aminopterin and thymidine) in 35 mm polyornithine-coated dish and incubated at 37° C., 10% CO2. After 1 to 2 days, the culture medium was replaced with DMEM (serum free medium) supplemented with 1% fetal calf serum and HT (hypoxanthine and thymidine) and 0.1 mM dibutyl cyclic AMP (abcAMP) was added to induce differentiation while Selenoprotein P at 4.36 μg/mL was added to the medium followed by culture for 3 days. After culture, the dish attached with a sheet of cells was rinsed twice with phosphate buffered saline (hereinafter referred to as PBS) to wash the culture. Cellular proteins were then fixed with paraformaldehyde adjusted to 4% with PBS. After fixation at room temperature for 30 minutes, the dish was rinsed twice with PBS to remove a fixing solution. […]
The nerve cell bodies had also a number of short neurites. […] A proportion of synapses specifically dyed with the anti-Rab3a antibody was then calculated with Mac SCOPE (manufactured by Mitani Corporation), a software for image analysis for Mackintosh, to measure immunopositive spots. […] Therefore, those spots with R value alone could be extracted with the analysis software and measured. In addition, the number of varicosity with no immunological reaction was measured manually and then a proportion (%) of the number of immunopositive varicosity among a total number of varicosity in the photographed picture was calculated.

cultured primary neurons = assay: Activation of primary neurons by NO (SNAP): mitochondrial dehydrogenase activity, Cell Counting kit-8; assay type: cell-based; settings: mouse primary neurons, 15 hours, fragment 0.26 μM as selenium (FIG. 3)
Description: In order to study the effect of Selenoprotein P on the neurotic activity of NO as synaptic neurotransmitter, cultured primary neurons were subject to the action of an NO generator, S-nitroso-N-acetyl-DL-penicillamine (SNAP, manufactured by DOJINDO LABORATORIES), in the presence of Selenoprotein P to determine as to whether a respiratory capacity of neuronal mitochondria is altered in the presence of Selenoprotein P. For determination of a respiratory capacity of mitochondria, a kit was used that readily measured the dehydrogenase activity in the mitochondrial inner membrane (Cell Counting kit-8, manufactured by DOJINDO LABORATORIES).
Fetus was removed from C57BL/6 mouse of 14-day pregnancy (purchased from Charles River Japan, Inc.). The cerebral cortex from the fetus was treated and dispersed with 0.25% trypsinized EDAT and then cultured in Neurobasal Medium (Gibco BRL.) supplemented with B27 supplement (Gibco ERL.) in 5% CO2 incubator at 37° C. for culture of primary neurons. […] After developing reaction, each 100 μL of the culture supernatant was transferred to a 96-well microtiter plate and then absorption was measured at a wave-length of 450 nm with a microtiter plate reader with a reference wave-length of 650 nm.

acetylcholine receptors = assay: Pilocarpine-induced convulsion in mice (function of acetylcholine receptor); assay type: in vivo; settings: ICR male mice
Method: In order to study the effect of Selenoprotein P on cholinergic neurons, to mice was administered pilocarpine that agonistically acted on acetylcholine receptors present on junctions (synaptic terminal) between neurons and between neurons and muscle to thereby induce convulsion. Pilocarpine, having a parasympathetic nerve-stimulating activity, will induce clonic convulsion in the limbs leading to systemic convulsion when administered to mice.
Twelve ICR male mice (weighing 30 to 43 g; purchased from CLEA Japan, Inc.) of nine weeks old were divided into two groups (6 animals/group) and tested. One hour before administration of pilocarpine, Selenoprotein P prepared at a concentration of 2.5 mg/mL with saline was administered to mice at 0.5 mg of Selenoprotein P per animal (200 μL) as a test group. For a control group, an equivalent amount of saline was administered intraperitoneally. Pilocarpine (pilocarpine hydrochloride, Wako Pure Chemical Industries, Ltd.) was prepared at 100 mg/mL with saline and administered to mice intraperitoneally at 270 to 320 mg/kg. Immediately after administration, mice were photographed with a digital video for record of experiment. Observation was made for 60 minutes after administration of pilocarpine. Time required for developing systemic convulsion and survival of the animals were taken for criteria of assessment. […]

cell culture [1] = test system: cell culture
[2] = Cell death-inhibitory activity of purified fractions; assay type: cell-based; settings: fractions purified from plasma (Preparation 1)
cell culture [3] = assay: Toxicity when added to cell culture

Molecule	Morphology of differentiated cells (neurites, varicosity) (NG108-15 cells; 3 days)	Rab3a-dyed particles on neurites (FIG. 1) (NG108-15 cells; 3 days, anti-Rab3a monoclonal antibody)	Proportion of Rab3a-immunopositive cells ± SD (NG108-15 cells; differentiation with dibutyl cyclic AMP, culture for 3 days, immunopositive varicosity among total varicosity)	Mitochondrial respiratory capacity of the neurons in the presence of NO generator SNAP (cultured primary neurons; SNAP 50 μM, Selenoprotein P or sodium selenite 1 μM)	Activity of dehydrogenase of the mitochondrial inner membrane (mitochondrial respiratory capacity), without SNAP (cultured primary neurons; no SNAP, Selenoprotein P 1 μM)	Time for developing systemic convulsion compared to control group (acetylcholine receptors; 0.5 mg Selenoprotein P per animal 1 hour before pilocarpine)	Mortality after challenge with pilocarpine compared to control group (FIG. 2) (acetylcholine receptors; 0.5 mg Selenoprotein P per animal, observation 60 minutes)	Toxicity (cell culture [1])	Cell death-inhibitory activity per proteins [2]	Toxicity (cell culture [3])
Selenoprotein P: selenocysteine-containing plasma protein (SEQ ID NO: 1), full-length 64 kDa, purified from human plasma (Preparation 2)	complexity in development of neurites as well as much particulate varicosity	a large number of Rab3a-dyed knotty particles on neurites	66.0 ± 2.75%	significantly increased	tended to show an increased activity	significantly shortened	apparently decreased mortality	no such a high toxicity could be observed	much lower than that of the fragment thereof	–
N[C@@H](C[Se][Se]C[C@H](N)C(=O)O)C(=O)O [selenocystine]	–	–	–	–	–	–	–	–	–	considerably high toxicity

From patent US20110183911A1, “METHOD FOR IMPROVING NEUROTRANSMISSION FAILURE USING A NOVEL AGENT” (JURIDICAL FOUNDATION THE CHEMO-SERO-THERAPEUTIC RESEARCH …, priority 2002, published 2011)
